The target in experiment [1] is T1, chimeric ecdysone receptor and reporter gene cassette (pES1) (UniProt O18473+P04150).
T1 construct: expressed in transfected cells; host or cells: stably transformed tobacco plants (A9)
T1 sequence (P04150+O18473 with tags, fused parts or gaps): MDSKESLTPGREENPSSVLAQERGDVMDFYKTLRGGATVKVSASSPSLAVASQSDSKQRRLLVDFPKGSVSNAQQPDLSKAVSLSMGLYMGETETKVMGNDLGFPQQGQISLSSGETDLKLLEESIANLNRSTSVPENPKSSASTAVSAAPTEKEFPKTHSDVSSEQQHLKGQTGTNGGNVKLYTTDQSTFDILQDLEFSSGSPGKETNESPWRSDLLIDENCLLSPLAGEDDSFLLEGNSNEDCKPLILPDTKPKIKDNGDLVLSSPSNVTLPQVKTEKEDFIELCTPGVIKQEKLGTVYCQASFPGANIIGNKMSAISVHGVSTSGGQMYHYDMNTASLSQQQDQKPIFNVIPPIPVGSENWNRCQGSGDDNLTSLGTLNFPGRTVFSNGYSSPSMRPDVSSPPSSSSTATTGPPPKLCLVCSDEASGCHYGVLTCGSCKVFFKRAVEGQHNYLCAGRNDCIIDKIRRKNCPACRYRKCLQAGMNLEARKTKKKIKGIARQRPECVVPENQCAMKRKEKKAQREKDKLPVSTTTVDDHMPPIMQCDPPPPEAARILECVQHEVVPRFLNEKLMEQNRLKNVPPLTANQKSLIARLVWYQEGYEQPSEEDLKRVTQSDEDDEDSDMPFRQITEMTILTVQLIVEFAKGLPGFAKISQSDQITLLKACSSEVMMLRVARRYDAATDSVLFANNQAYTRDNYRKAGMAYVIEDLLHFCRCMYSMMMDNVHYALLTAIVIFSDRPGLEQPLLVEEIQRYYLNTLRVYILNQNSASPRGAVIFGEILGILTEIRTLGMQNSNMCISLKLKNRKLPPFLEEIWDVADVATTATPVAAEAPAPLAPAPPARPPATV
The experiment in a line: GUS activity in stably transformed tobacco plants (pES1). Type of experiment: in vivo, Heliothis virescens. The text has this:
The methodology described below was used to produce four different stable Tobacco vectors. The method involves three steps: • 1. pbluescript SK HindIII/EcoRI vector was ligated to either GRE6-4635SCaMVGUSNOS HindIII/EcoRI (from p221.10GRE6) or GRE6-6035SCaMVGUSNOS HindIII/EcoRI (from p221.9GRE6) resulting in plasmid pSK-46 and pSK-60. • 2. This step involves the addition of the chimeric receptor (35SGRHEcRNOS or 35SGRVP16HEcRNOS) to pSK-60 or pSK-46. Thus a pSK-60 (or pSK-46) XbaI vector was ligated with either the 3.4 kb 35SGRHEcRNOS XbaI or the 3.0 kb 35SGRVP16HEcRNOS XbaI DNA fragment to produce pSKES1 (pSKGRE6-6035SCaMVGUSNOS-35SGRHEcRNOS), pSKES2 (pSKGRE6-4635 SCaMVGUSNOS-35 SGRHEcRNOS), pSKES3 (pSKGRE6-6035SCaMVGUSNOS-35SGRVP16HEcRNOS) and pSKES4 (pSKGRE6-4635SCaMVGUSNOS-35SGRVP16HEcRNOS). • 3. Transfer from pBluescript based vectors to binary vectors. The transfer of the ES1 (FIG. 29) ES2 (FIG. 30), ES3 (FIG. 31) or ES4 (FIG. 32) DNA fragments into the binary vector JR1 involves five steps: • (i) Restriction enzyme digestion of pSKES1 (ES2, ES3, and ES4) with ApaI and NotI to liberate the insert from the vector pBluescript. • (ii) The two DNA fragments were BamHI methylated for 2 hours at 37° C. in TRIS-HCl, MgCl, 80 μM SAM (S-adenosylmethionine) and 20 U of BamHI methylase. • (iii) Ligate an ApaI/NotI linker onto the fragment. The linker was designed to have an internal BamHI site: • ApaBNot1 5′ cattggatccttagc 3′ (SEQ ID NO: 46) and • ApaBNot2 5′ […] 3′ (SEQ ID NO: 47). • (iv) Restriction enzyme digest the protected and linkered fragment with BamHI and fractionate the products on a 1% (w/v) agarose gel. The protected DNA fragment (5.5 kb) was cut out of the gel and purified. • (v) A ligation of JRI BamHI vector with the protected band was carried out to produce JRIESI (JRIES2, JRIES3 or JRIES4). The DNA of the recombinant was characterised by restriction mapping and the sequence of the junctions determined. […]

The subject of experiment [2] is Spodoptera exigua. The following applies: compared with Heliothis; cited from earlier work.

For `CCc1ccc(C(=O)NN(C(=O)c2cc(C)cc(C)c2)C(C)(C)C)cc1` [RH5992, 3,5-dimethylbenzoic acid 1-1(1,1-dimethylethyl)-2(4-ethylbenzoyl)hydrazide], the GUS activity result is recorded as “significantly elevated” in experiment [1] (5 mM foliar application, 8 week old glasshouse grown tobacco plants); “significantly elevated” in experiment [1] (seedlings grown hydroponically in the presence of inducer); “significantly elevated” in experiment [1] (transgenic tobacco treated in cell culture, 100 μM in MS media). For the same compound, in experiment [2], the sensitivity of species result is listed as “more sensitive to RH5992 than Heliothis”.

Source of the values: patent publication US7183061B2, “Method of expressing Heliothis ecdysone receptor fusion protein” (Syngenta Limited, priority 1996, dated 2007).
